Assay results: PubChem BioAssay AID2060331 (Molecular Pharmacology Branch, DTP, NCI, 2025)
Values joined by “and” are separate entries in the source; they are usually repeats but may differ in a detail not shown here. Identical values can stand only once.

System: Hs578T multi-cell spheroids, viability
Experiment: Anticancer human tumor Hs578T cell line growth inhibition [IpAb];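 also: drug exposure lasted 7 days before readout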
Details: for viability, T/C: stronger effect = lower value
Text: Combinatorial screen of targeted agents with ipatasertib and abemaciclib in multi-cell type tumor spheroids
A high-throughput screen of multi-cell type tumor spheroids was designed to identify active combinations of targeted small molecules and ipatasertib or abemaciclib. Complex spheroids include a stromal component modeled by human endothelial cells (HUVEC) and fibroblasts modeled by human mesenchymal stem cells (MSCs). The concentration ranges selected for each drug and investigational agent were based upon clinically achievable concentrations if the clinical Cmax of the agent was known.
Compounds. The drugs and investigational agents: ipatasertib (NSC767898), abemaciclib(NSC768073), selumetinib (NSC741078), trametinib (758246), adavosertib (NSC754352), everolimus (NSC733504), sapanisertib (NSC764658), vemurafenib (NSC761431), venetoclax (NSC766270), copanlisib (NSC809693), apelisib (NSC765974), palbociblib (NSC758247), vemurafenib (NSC761431), dabrafenib (NSC764134), ravoxertinib (NSC781343), BMS-387032 (NSC767048), sotorasib (NSC818433), talazoparib (NSC767125) and afursertib (NSC778305), were obtained from the National Cancer Institute (NCI) Developmental Therapeutics Program Chemical Repository. The FDA-approved anticancer drug set is available from the NCI Developmental Therapeutics Program. […] The stock solutions were prepared in dimethyl sulfoxide (DMSO, Sigma-Aldrich, St. Louis, MO, cat. D2650) at 800-fold the tested concentration and stored at -70 degrees C prior to their use. All drugs and investigational agents were tested over a range starting from a high concentration at or near the clinical Cmax and decreasing in half-log increments. If the clinical Cmax for an agent had not been determined, the highest concentration tested was 10 microM.
NCI60 Cell Culture. NCI60 cell lines were obtained from the NCI Developmental Therapeutics Program Tumor Repository. For each lot of cells, the Repository performed Applied Biosystems AmpFLSTR Identifiler testing with PCR amplification to confirm consistency with the published Identifier STR profile for each cell line. Cells were kept in continuous culture for no more than 20 passages. The optimal seeding densities for each of the cell lines at each time point assessed were determined prior to performing the concentration response studies. Briefly, the NCI60 human tumor lines were grown as monolayers in RPMI 1640 medium supplemented with 10% FBS and 2 mmol/L L-glutamine.
An additional 9 lines were from the NCI60 cell line panel including MDA-MB-231 breast carcinoma, MDA-MB-468 breast carcinoma, MCF7 breast carcinoma, Hs578T breast carcinoma, MALME-3M melanoma, SK-MEL-2 melanoma, SK-OV-3 ovarian carcinoma, DU-145 prostate carcinoma, PC-3 prostate carcinoma, all cell lines along with major genetic alterations are listed on Table 2. Pooled donor human umbilical vein endothelial cells (HUVEC, Lonza, cat. CC-2519) and human mesenchymal stem cells (hMSC, Lonza, cat. PT-2501) were purchased from Lonza (Walkersville, MD).
PDMR cell lines were grown in complete medium (DC medium): Dulbecco's modified Eagle's medium (DMEM)/F12 supplemented with 5% fetal bovine serum (FBS), 2 mM L-glutamine, 100 U/mL penicillin and 100 µg/ml streptomycin, 0.4 µg/ml hydrocortisone, 10 ng/ml epidermal growth factor (EGF) recombinant human protein, 24 µg/mL adenine, and 0.1 mg/mL primocin. During culture from frozen stock vials, PDMR cells were cultured in the same medium containing 10 µM Y-27632 (see Table 3). The PDCs were cultured in complete DMEM/F12 media without 10 microM Y-27632 dihydrochloride for at least two passages prior to the screen. The pooled donor HUVEC and hMSC were cultured in endothelial cell growth medium 2 (PromoCell, Heidelberg, Germany, cat. C-22011) and mesenchymal stem cell growth medium 2 (PromoCell, cat. C-28009), respectively. For all experiments, HUVEC and hMSC were used at passages </=5.
[…]

Compound | IC50 (curve of compound) | viability, T/C (compound 0.0316 µM) | viability, T/C (compound 0.1 µM) | viability, T/C (compound 0.316 µM) | viability, T/C (compound 1 µM) | viability, T/C (compound 3.16 µM) | viability, T/C (compound 10 µM) | viability, T/C (compound 0.01 µM) | further results
CC(C)(C)c1cnc(CSc2cnc(NC(=O)C3CCNCC3)s2)o1 | 184 nM and 178 nM | – | – | – | – | – | – | – | viability, T/C (compound 0.00949 µM): 102% and 104%; viability, T/C (compound 0.03 µM): 113% and 114%; viability, T/C (compound 0.0949 µM): 122% and 107%; viability, T/C (compound 0.3 µM): 4.21% and 2.95%; viability, T/C (compound 0.949 µM): 2.73% and 3.15%; viability, T/C (compound 3 µM): 2.69% and 3.46%
CC(C)NCC(C(=O)N1CCN(c2ncnc3c2C(C)CC3O)CC1)c1ccc(Cl)cc1 (configuration not stated) | – | – | 96.2% [middle of 13 runs] | 83.9% [middle of 13 runs] | 66.8% [middle of 13 runs] | 53.8% [middle of 12 runs] | 45% [middle of 13 runs] | – | –
CC1(C)CCC(CN2CCN(c3ccc(C(=O)NS(=O)(=O)c4ccc(NCC5CCOCC5)c([N+](=O)[O-])c4)c(Oc4cnc5[nH]ccc5c4)c3)CC2)=C(c2ccc(Cl)cc2)C1 | 5910 nM and 6160 nM | 105% and 104% | 103% and 110% | 99.5% and 102% | 104% | 89.2% and 92.6% | 17% and 19% | – | –
CCN1CCN(Cc2ccc(Nc3ncc(F)c(-c4cc(F)c5nc(C)n(C(C)C)c5c4)n3)nc2)CC1 | – | 90.4% [middle of 13 runs] | 83.7% [middle of 13 runs] | 83.3% [middle of 13 runs] | 94.2% [middle of 13 runs] | – | – | 97.2% [middle of 13 runs] | IC50 (compound alone, run of 06/01/2021): > 1000 nM

Further lines, with some results ahead:

IC50 (curve of compound) | Compound | viability, T/C (compound 0.0316 µM) | viability, T/C (compound 0.1 µM) | viability, T/C (compound 0.316 µM) | viability, T/C (compound 1 µM) | viability, T/C (compound 3.16 µM) | viability, T/C (compound 10 µM) | viability, T/C (compound 0.01 µM) | further results
> 10000 nM | C=CC(=O)N1CCN(c2nc(=O)n(-c3c(C)ccnc3C(C)C)c3nc(-c4c(O)cccc4F)c(F)cc23)C(C)C1 (configuration not stated) | 103% and 104% | 103% and 109% | 113% and 116% | 108% and 111% | 106% and 95.6% | 73.4% and 68.4% | – | –
275 nM and 295 nM | C=CCn1c(=O)c2cnc(Nc3ccc(N4CCN(C)CC4)cc3)nc2n1-c1cccc(C(C)(C)O)n1 | 98.6% and 100% | 77.7% and 83.3% | 46.2% and 47.5% | 26% and 25.8% | 15.1% and 19.1% | 17.7% and 17.6% | – | –
> 300 nM | CC(=O)c1c(C)c2cnc(Nc3ccc(N4CCNCC4)cn3)nc2n(C2CCCC2)c1=O | – | – | – | – | – | – | – | viability, T/C (compound 0.000949 µM): 105% and 108%; viability, T/C (compound 0.003 µM): 90.8% and 99.7%; viability, T/C (compound 0.00949 µM): 92.8% and 87.4%; viability, T/C (compound 0.03 µM): 82.7% and 87.7%; viability, T/C (compound 0.0949 µM): 73.4% and 73.1%; viability, T/C (compound 0.3 µM): 63.6% and 72.5%
7.72 nM and 9.02 nM | CC(C)n1nc(-c2ccc3oc(N)nc3c2)c2c(N)ncnc21 | 20.7% and 20.5% | 15.8% and 14.6% | – | – | – | – | 43.1% and 49.1% | viability, T/C (compound 0.000316 µM): 95.3% and 94.5%; viability, T/C (compound 0.001 µM): 92.4% and 104%; viability, T/C (compound 0.00316 µM): 74.8% and 76.7%
5310 nM and 5510 nM | CCCS(=O)(=O)Nc1ccc(F)c(C(=O)c2c[nH]c3ncc(-c4ccc(Cl)cc4)cc23)c1F | 95.3% and 98.5% | 101% and 109% | 109% and 105% | 96.1% and 102% | 81.1% and 85.8% | 12.5% and 11.4% | – | –
26 nM and 31.8 nM | COc1c(OCCCN2CCOCC2)ccc2c3n(c(=NC(=O)c4cnc(N)nc4)nc12)CCN3 | 47.2% and 49% | 29.4% | 14.3% and 13.7% | 8.6% and 5.54% | – | – | 66.7% and 76.7% | viability, T/C (compound 0.00316 µM): 88.8% and 99.7%
